# Paper PMC10233092, “Selective Janus kinase 1 inhibition resolves inflammation and restores hair growth offering a viable treatment option for alopecia areata” (Skin Health and Disease, 2023)
# Like-named read-outs stand apart in the source and are kept apart here.
# Assays:
# [1] = tested on: C3H/HeJ mouse model of AA; assay: Taqman gene expression in mouse skin; assay type: in vivo; conditions: Mean±SEM
# Description: RNA was prepared according to a standard phenol‐chloroform total RNA extraction method where skin samples were homogenized in QIAzol® Lysis Reagent (QIAGEN Sciences, Maryland 20847, USA), added chloroform, vortexed and centrifuged for phase separation. The RNA containing phase was ethanol precipitated and purified on an Applied Biosystems 6100 Nucleic Acid Prep Station. RNA integrity was measured on the Fragment Analyzer platform (AATI, IA, USA) using standard sensitivity RNA analysis kit.
# cDNA was synthesized from mouse skin RNA using the High Capacity cDNA Reverse Transcription Kit from Life Technologies. Gene expression was performed on the QuantStudio™ 7 Flex Real‐Time PCR System (Applied Biosystems, Foster City, CA, USA) using custom made TaqMan® Array Micro Fluidic Cards. Results were analyzed with the QuantStudio™ 7 Flex Real‐Time PCR System software. Detailed description in Supplementary materials.
# RNA extraction: Frozen 20 mg skin biopsies were transferred to 2 mL eppendorf tubes placed on dry ice, added 5 stainless steel beads of 3 mm ø and 750 μL cold QIAzol® Lysis Reagent (QIAGEN Sciences, Maryland 20847, USA). The samples were mounted on a Mixer Mill Tissue Lyser (Retsch GmbH, Haan, Germany) and homogenized for 2 x 5 minutes at 30 Hz, then centrifuged for 1 minute at 6000g, added 150 μL CHCl3, vigorously shaken for 15 seconds and incubated for 3 minutes. After 15 minutes centrifugation at 6000g the aqueous RNA containing phase was transferred to a 96 deep well plate and mixed with an equal volume of 70 % Ethanol. The RNA-Ethanol precipitate was purified and DNase treated on a 6100 Nucleic Acid Prep Station (Applied Biosystems, Foster City, CA, USA). Total RNA was eluted in 100 μL Elution Buffer (Applied Biosystems, Foster City, CA, USA) and the concentrations were measured on the NanoDrop ND-1000 Spectrophotometer (Thermo Fischer Scientific, Wilmington, DE, USA) at 260 nm.
# cDNA synthesis: cDNA synthesis was performed using the High Capacity cDNA Reverse Transcription Kit from Life Technologies (Applied Biosystems, Foster City, CA, USA) according to the manufacturer´s instructions. The cDNA samples were diluted with RNase free water to 100 ng/µL, in a later (experiment) to 200 ng/µL.
# The gene expression results are shown as log2 Fold Change. With the calibrator group close to zero, up- or down regulation of the target genes are visualized as positive or negative values, making it easier to assess the size of, in particular, the down regulations.
# [2] = tested on: Human Peripheral Blood Mononuclear Cells (PBMCs); assay: Cytokine release from anti-CD3-stimulated human PBMCs; assay type: cell-based; conditions: anti-CD3, 40-48h, 4 healthy donors, linear regression
# Description: Human Peripheral Blood Mononuclear Cells (PBMCs) were isolated by Sepmate technique (Stemcell Technologies) from heparinized venous blood from healthy volunteers. Primary human CD8^+ T‐cells were further isolated using a CD8^+ T cell Isolation Kit according to protocol (Miltenyi Biotec). Experiments were approved by the local ethical committee in Gothenburg (033‐11).
# Soluble anti‐CD28 were added to the CD8^+ cultures to facilitate co‐stimulation. After 40–48 h, supernatants were harvested for mediator analysis and the cells were washed and resuspended in RLT buffer (Qiagen) for RNA isolation.
# Analysis of human cytokine panels was carried out using a Luminex assay kit from Merck Millipore (Cat# HCYTMAG‐60K‐PX41) and Mesoscale Discovery (MSD) immunoassay kits (Cat# K211AEB‐2 and K15049D) as recommended in the respective supplier protocols.
# [3] = tested on: C3H/HeJ mouse model of AA; assay: Cellularity and flow cytometry of spleen and skin draining lymph nodes; assay type: in vivo; conditions: AA mice
# Description: Cutaneous lymph nodes and spleens from mice treated either orally or topically (treated and untreated side, respectively) were pooled and minced in DPBS/2% FBS/2 mM EDTA, filtered through […] strainers and spun at 350 g for 5 min. Blood was collected in EDTA‐coated tubes and red blood cells were lysed using BD FACS lysing solution (as was red blood cells from spleen single cell suspensions). Cell differential were obtained from haematology analyzer Sysmex XE‐2100 (Sysmex Corporation, Japan). Equal cell numbers for each sample were incubated with anti‐mouse CD16/CD32 block to prevent unspecific binding and then stained for 30 min at 4°C with the following anti‐mouse antibodies (all from BD); FITC CD3e (145‐2C11), APC‐Cy7 TCRβ (H‐57‐597), BV510 or BV786 CD8α (53‐6.7), BV711 NKG2D (Cx5), BUV395 CD4 (GK1.5), BV711 or BV605 CD44 (IM7), BUV395 CD45 (30‐F11), PerCP‐Cy5.5 CD19 (1D3) and PE‐Cy7 CD62L (MEL‐14). […] The cells were analyzed on a BD LSRII flow cytometer and analysis was performed with FlowJo (Tree Star) software.
# [4] = tested on: C3H/HeJ mouse model of AA; assay: Circulating cytokines in mouse plasma, Luminex; assay type: in vivo; conditions: at 4 weeks
# Description: A Luminex assay kit from Merck Millipore (Cat# MTH17MAG‐47K) was used and the analysis carried out according to the supplier protocols.
# [5] = C3H/HeJ, mouse, in vivo
# [6] = Local JAK1i group, Mean±95% CI, n=6
# [7] = Systemic JAK1i group, Mean±95% CI, n=6
compound,measurement,setting,value
Cc1cnc(Nc2cccnc2F)nc1-c1c[nH]c2c(NC(=O)[C@@H](C)N3CCN(C)CC3)cccc12 [Cmpd A],"CD8a expression in skin, fold change (log2) from AA",[1]; 8w off Tx,"-0.32 ± 0.45 (0.97, n=6) log2 fold change"
same,"CXCL9 expression in skin, fold change (log2) from AA",[1]; 8w off Tx,"-0.33 ± 0.73 (0.96, n=6) log2 fold change"
same,"CXCL10 expression in skin, fold change (log2) from AA",[1]; 8w off Tx,"-0.32 ± 0.61 (0.97, n=6) log2 fold change"
same,"CXCL11 expression in skin, fold change (log2) from AA",[1]; 8w off Tx,"0.43 ± 0.73 (0.93, n=6) log2 fold change"
same,"GZMB expression in skin, fold change (log2) from AA",[1]; 8w off Tx,"-0.81 ± 0.73 (0.099, n=3) log2 fold change"
same,"ICOS expression in skin, fold change (log2) from AA",[1]; 8w off Tx,"-0.05 ± 0.09 (0.34, n=2) log2 fold change"
same,"Krt32 expression in skin, fold change (log2) from AA",[1]; 8w off Tx,"-1.44 ± 0.98 (0.062, n=6) log2 fold change"
same,"MX1 expression in skin, fold change (log2) from AA",[1]; 8w off Tx,"-0.37 ± 0.41 (0.67, n=6) log2 fold change"
same,"STAT1 expression in skin, fold change (log2) from AA",[1]; 8w off Tx,"-0.30 ± 0.28 (0.67, n=6) log2 fold change"
same,"CD8a expression in skin, fold change (log2) from AA","[1]; Systemic JAKi (oral, 4 weeks)","-2.56 ± 0.24 (<0.001, n=6) log2 fold change"
same,"CXCL9 expression in skin, fold change (log2) from AA","[1]; Systemic JAKi (oral, 4 weeks)","-3.83 ± 0.47 (<0.001, n=6) log2 fold change"
same,"CXCL10 expression in skin, fold change (log2) from AA","[1]; Systemic JAKi (oral, 4 weeks)","-3.28 ± 0.42 (<0.001, n=5) log2 fold change"
same,"CXCL11 expression in skin, fold change (log2) from AA","[1]; Systemic JAKi (oral, 4 weeks)","-4.32 ± 0.36 (<0.001, n=5) log2 fold change"
same,"ICOS expression in skin, fold change (log2) from AA","[1]; Systemic JAKi (oral, 4 weeks)","-1.05 ± 0.12 (0.0083, n=4) log2 fold change"
same,"Krt32 expression in skin, fold change (log2) from AA","[1]; Systemic JAKi (oral, 4 weeks)","-3.16 ± 0.13 (<0.001, n=6) log2 fold change"
same,"MX1 expression in skin, fold change (log2) from AA","[1]; Systemic JAKi (oral, 4 weeks)","-3.71 ± 0.21 (<0.001, n=6) log2 fold change"
same,"STAT1 expression in skin, fold change (log2) from AA","[1]; Systemic JAKi (oral, 4 weeks)","-2.29 ± 0.25 (<0.001, n=6) log2 fold change"
same,"release of TNFα, IL-1RA, IP-10, IL-17 and MIP-1β from PBMC compared with Ruxo and Tofa",[2],significantly differently released
"Cc1cnc(Nc2cc(N3C[C@@H]4C[C@H]3CN4C)cnc2F)nc1N[C@H](C)[C@H](C)CO [Cmpd B, (2S,3R)-3-{[2-({2-fluoro-5-[(1S,4S)-5-methyl-2,5-diazabicyclo[2.2.1]heptan-2-yl]pyridin-3-yl}amino)-5-methylpyrimidin-4-yl]amino}-2-methylbutan-1-ol]","CD8a expression in skin, fold change (log2) from AA",[1]; Local JAK1i (treated side),"1.06 ± 0.63 (0.245, n=6) log2 fold change"
same,"CXCL9 expression in skin, fold change (log2) from AA",[1]; Local JAK1i (treated side),"0.60 ± 0.50 (0.69, n=6) log2 fold change"
same,"CXCL10 expression in skin, fold change (log2) from AA",[1]; Local JAK1i (treated side),"0.23 ± 0.49 (0.99, n=6) log2 fold change"
same,"CXCL11 expression in skin, fold change (log2) from AA",[1]; Local JAK1i (treated side),"0.06 ± 0.63 (0.99, n=6) log2 fold change"
same,"GZMB expression in skin, fold change (log2) from AA",[1]; Local JAK1i (treated side),"0.93 ± 0.35 (0.45, n=5) log2 fold change"
same,"ICOS expression in skin, fold change (log2) from AA",[1]; Local JAK1i (treated side),"1.33 ± 0.18 (<0.001, n=4) log2 fold change"
same,"Krt32 expression in skin, fold change (log2) from AA",[1]; Local JAK1i (treated side),"-0.81 ± 0.70 (0.49, n=6) log2 fold change"
same,"MX1 expression in skin, fold change (log2) from AA",[1]; Local JAK1i (treated side),"0.03 ± 0.38 (0.99, n=6) log2 fold change"
same,"STAT1 expression in skin, fold change (log2) from AA",[1]; Local JAK1i (treated side),"1.09 ± 0.29 (<0.001, n=6) log2 fold change"
same,"CD8a expression in skin, fold change (log2) from AA",[1]; Local JAK1i (untreated side),"1.02 ± 0.71 (0.80, n=6) log2 fold change"
same,"CXCL9 expression in skin, fold change (log2) from AA",[1]; Local JAK1i (untreated side),"0.82 ± 0.65 (0.41, n=6) log2 fold change"
same,"CXCL10 expression in skin, fold change (log2) from AA",[1]; Local JAK1i (untreated side),"-0.03 ± 0.74 (0.99, n=6) log2 fold change"
same,"CXCL11 expression in skin, fold change (log2) from AA",[1]; Local JAK1i (untreated side),"0.08 ± 0.76 (0.99, n=6) log2 fold change"
same,"GZMB expression in skin, fold change (log2) from AA",[1]; Local JAK1i (untreated side),"0.77 ± 0.37 (0.64, n=5) log2 fold change"
same,"ICOS expression in skin, fold change (log2) from AA",[1]; Local JAK1i (untreated side),"1.06 ± 0.29 (0.0018, n=5) log2 fold change"
same,"Krt32 expression in skin, fold change (log2) from AA",[1]; Local JAK1i (untreated side),"-0.64 ± 0.71 (0.70, n=6) log2 fold change"
same,"MX1 expression in skin, fold change (log2) from AA",[1]; Local JAK1i (untreated side),"0.02 ± 0.41 (0.99, n=6) log2 fold change"
same,"STAT1 expression in skin, fold change (log2) from AA",[1]; Local JAK1i (untreated side),"1.07 ± 0.29 (<0.001, n=6) log2 fold change"
COCC(C(=O)Nc1cccc2c(-c3nc(Nc4cccc(S(C)(=O)=O)c4F)ncc3F)c[nH]c12)N1CCN(C)CC1 (stereo not shown) [Cmpd C],hypercellularity of skin draining LNs and spleen,"[3]; systemic (oral 12.5 mg/kg/day, 2 weeks)",drastically reduced
same,hypercellularity of skin draining LNs and spleen,"[3]; topical treatment (0.01% cream, 2 weeks)",only marginally affected
same,IFN-γ in mouse plasma,[4]; [6],42 (±14) pg/mL
same,IL-1β in mouse plasma,[4]; [6],2.4 (±0.5) pg/mL
same,IL-2 in mouse plasma,[4]; [6],6.2 (±1.6) pg/mL
same,IL-10 in mouse plasma,[4]; [6],2.9 (±1.4) pg/mL
same,IL-13 in mouse plasma,[4]; [6],37 (±2.9) pg/mL
same,IL-17A in mouse plasma,[4]; [6],15 (±2.4) pg/mL
same,IL-22 in mouse plasma,[4]; [6],35 (±25) pg/mL
same,IL-23 in mouse plasma,[4]; [6],148 (±95) pg/mL
same,IL-33 in mouse plasma,[4]; [6],76 (±58) pg/mL
same,TNFα in mouse plasma,[4]; [6],7.3 (±0.8) pg/mL
same,IL-6 in mouse plasma,"[4]; Local JAK1i group, only one value within detection range",2.8 (±NA) pg/mL
same,IFN-γ in mouse plasma,[4]; [7],49 (±21) pg/mL
same,IL-2 in mouse plasma,[4]; [7],4.5 (±1.5) pg/mL
same,IL-6 in mouse plasma,[4]; [7],2.9 (±2.3) pg/mL
same,IL-10 in mouse plasma,[4]; [7],2.4 (±0.7) pg/mL
same,IL-13 in mouse plasma,[4]; [7],33 (±13) pg/mL
same,IL-17A in mouse plasma,[4]; [7],15 (±4.2) pg/mL
same,IL-22 in mouse plasma,[4]; [7],42 (±31) pg/mL
same,IL-23 in mouse plasma,[4]; [7],206 (±333) pg/mL
same,IL-33 in mouse plasma,[4]; [7],32 (±17) pg/mL
same,TNFα in mouse plasma,[4]; [7],6.3 (±2.0) pg/mL
same,IL-1β in mouse plasma,"[4]; Systemic JAK1i group, only one value within detection range",2.0 (±NA) pg/mL
same,estimated average free exposure in plasma over IC50,[5],0.02 fold IC50
same,estimated average free exposure in skin over IC50,[5],0.43 fold IC50
same,estimated average free exposure in plasma over IC50,"[5]; po, 2 weeks",1.4 fold IC50
same,estimated average free exposure in skin over IC50,"[5]; po, 2 weeks",0.5 fold IC50
